In test [1] the target is 5-hydroxytryptamine receptor 6 (Homo sapiens, UniProt P50406). In kind it is cell membranes, HeLa, Membrane. Conditions: hela. Note: in other assays of this panel Not Active means under 50% inhibition at 10 µM.
The next test concerns the target Substance-P receptor (Homo sapiens, UniProt P25103). Format: cell membranes, Membrane. Conditions: cho. Note: in other assays of this panel Not Active means under 50% inhibition at 10 µM.
The target in the next test is Cannabinoid receptor 1 (Homo sapiens, UniProt P21554). In kind it is cell membranes, Chem-1, Membrane. Conditions: chem-1. Note: in other assays of this panel Not Active means under 50% inhibition at 10 µM.
The target of the next test is T1, Endothelin-1 receptor (Homo sapiens, UniProt P25101). Note: in other assays of this panel Not Active means under 50% inhibition at 10 µM.
T1 sequence (P25101 whole entry): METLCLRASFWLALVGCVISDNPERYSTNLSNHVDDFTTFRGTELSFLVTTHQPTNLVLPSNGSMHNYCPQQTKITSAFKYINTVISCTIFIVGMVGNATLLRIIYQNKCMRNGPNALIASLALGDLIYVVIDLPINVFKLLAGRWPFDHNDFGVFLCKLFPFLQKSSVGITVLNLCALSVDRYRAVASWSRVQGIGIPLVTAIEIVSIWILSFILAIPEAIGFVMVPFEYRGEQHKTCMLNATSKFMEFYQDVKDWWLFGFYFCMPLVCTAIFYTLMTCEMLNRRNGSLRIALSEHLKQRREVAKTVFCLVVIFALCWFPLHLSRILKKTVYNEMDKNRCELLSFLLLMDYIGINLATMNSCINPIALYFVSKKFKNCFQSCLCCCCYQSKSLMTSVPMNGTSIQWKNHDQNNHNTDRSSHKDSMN
Format: cell membranes, Membrane. Conditions: cho-k1.

The nature of test [2]: DRUGMATRIX: GABAA, Chloride Channel, TBOB radioligand binding (ligand: [3H] TBOB). Format: cell membranes, Rattus norvegicus, Wistar, Cerebral cortex, Membrane. Conditions: Not Active = under 50% inhibition at 10 µM.
For another test, the target named is T2, Progesterone receptor (Bos taurus, UniProt Q690N0).
T2 sequence (Q690N0 whole entry): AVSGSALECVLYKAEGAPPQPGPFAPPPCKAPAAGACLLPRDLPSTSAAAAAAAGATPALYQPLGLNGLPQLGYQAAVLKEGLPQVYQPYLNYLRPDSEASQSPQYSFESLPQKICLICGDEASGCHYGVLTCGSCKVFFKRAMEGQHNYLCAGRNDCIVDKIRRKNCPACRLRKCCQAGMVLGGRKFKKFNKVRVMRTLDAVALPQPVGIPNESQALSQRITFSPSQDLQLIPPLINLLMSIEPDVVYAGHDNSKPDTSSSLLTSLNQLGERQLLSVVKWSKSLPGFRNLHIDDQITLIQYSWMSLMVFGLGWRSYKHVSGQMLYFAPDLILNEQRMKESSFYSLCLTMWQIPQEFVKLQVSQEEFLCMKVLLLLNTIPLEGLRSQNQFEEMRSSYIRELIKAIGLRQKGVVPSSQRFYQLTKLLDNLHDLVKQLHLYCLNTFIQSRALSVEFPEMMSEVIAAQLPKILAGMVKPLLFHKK
The experiment in a line: DRUGMATRIX: Progesterone radioligand binding (ligand: [3H] R-5020). In kind it is tissue-based, Uterus. Conditions: Not Active = under 50% inhibition at 10 µM; for Ki: read-out: Ki.

Test [3] concerns the target Tyrosine-protein kinase Lck (Homo sapiens, UniProt P06239). Description: DRUGMATRIX: Protein Tyrosine Kinase, LCK enzyme inhibition (substrate: Poly(Glu:Tyr)). Format: cell-based, Insect cells. Particulars: Not Active = under 50% inhibition at 10 µM.

Chain of Cannabinoid receptor 1 (P21554 whole entry): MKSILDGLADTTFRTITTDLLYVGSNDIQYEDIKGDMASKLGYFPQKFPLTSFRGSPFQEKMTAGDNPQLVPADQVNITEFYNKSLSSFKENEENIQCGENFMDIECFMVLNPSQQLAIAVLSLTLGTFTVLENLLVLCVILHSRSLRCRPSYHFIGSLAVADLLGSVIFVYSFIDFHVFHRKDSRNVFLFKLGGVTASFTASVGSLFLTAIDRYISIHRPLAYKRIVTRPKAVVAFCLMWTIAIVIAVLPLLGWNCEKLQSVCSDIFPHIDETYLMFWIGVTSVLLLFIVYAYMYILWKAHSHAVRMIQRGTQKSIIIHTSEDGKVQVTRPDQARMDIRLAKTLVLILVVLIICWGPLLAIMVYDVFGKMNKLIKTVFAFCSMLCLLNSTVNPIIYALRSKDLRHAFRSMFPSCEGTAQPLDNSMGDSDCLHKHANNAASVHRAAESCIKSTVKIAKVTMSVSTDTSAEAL
Chain of Tyrosine-protein kinase Lck (P06239 whole entry): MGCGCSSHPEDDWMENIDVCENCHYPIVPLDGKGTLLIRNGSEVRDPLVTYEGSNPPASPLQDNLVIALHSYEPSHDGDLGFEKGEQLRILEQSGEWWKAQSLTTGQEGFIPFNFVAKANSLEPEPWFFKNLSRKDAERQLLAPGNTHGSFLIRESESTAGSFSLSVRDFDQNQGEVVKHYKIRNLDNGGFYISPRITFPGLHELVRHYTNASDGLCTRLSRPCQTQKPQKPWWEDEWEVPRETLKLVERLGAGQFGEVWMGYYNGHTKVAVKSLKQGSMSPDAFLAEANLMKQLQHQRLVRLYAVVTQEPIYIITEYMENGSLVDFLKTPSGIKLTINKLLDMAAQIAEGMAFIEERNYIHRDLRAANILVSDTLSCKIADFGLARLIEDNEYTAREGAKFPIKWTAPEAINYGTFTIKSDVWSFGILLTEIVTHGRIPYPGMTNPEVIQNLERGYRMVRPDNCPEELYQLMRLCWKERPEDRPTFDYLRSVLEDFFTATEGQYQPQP
Chain of 5-hydroxytryptamine receptor 6 (P50406 whole entry): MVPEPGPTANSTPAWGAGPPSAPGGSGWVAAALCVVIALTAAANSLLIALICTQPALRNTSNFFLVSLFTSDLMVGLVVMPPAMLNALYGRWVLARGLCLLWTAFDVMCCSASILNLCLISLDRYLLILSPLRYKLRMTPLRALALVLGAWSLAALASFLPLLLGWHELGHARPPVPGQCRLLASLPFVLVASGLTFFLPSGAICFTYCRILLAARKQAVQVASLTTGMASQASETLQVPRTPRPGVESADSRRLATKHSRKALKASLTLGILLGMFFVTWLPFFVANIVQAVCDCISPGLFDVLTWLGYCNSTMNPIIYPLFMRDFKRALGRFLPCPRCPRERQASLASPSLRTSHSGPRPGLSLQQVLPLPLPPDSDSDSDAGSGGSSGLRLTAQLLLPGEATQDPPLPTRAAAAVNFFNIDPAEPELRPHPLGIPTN
Chain of Substance-P receptor (P25103 whole entry): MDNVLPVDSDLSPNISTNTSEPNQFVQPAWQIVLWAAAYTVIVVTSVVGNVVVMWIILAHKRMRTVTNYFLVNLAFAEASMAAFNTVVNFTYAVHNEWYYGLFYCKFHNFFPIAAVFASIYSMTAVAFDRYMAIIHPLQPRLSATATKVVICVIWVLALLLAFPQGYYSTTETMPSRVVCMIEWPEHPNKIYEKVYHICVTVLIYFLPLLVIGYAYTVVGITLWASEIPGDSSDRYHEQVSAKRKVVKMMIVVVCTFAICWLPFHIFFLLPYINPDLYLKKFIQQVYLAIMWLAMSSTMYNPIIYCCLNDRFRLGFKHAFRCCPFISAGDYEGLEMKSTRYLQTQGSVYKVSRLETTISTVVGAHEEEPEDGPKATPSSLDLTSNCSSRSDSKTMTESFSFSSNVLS

Turning to `Cn1c(=O)c2c(ncn2CC2OCCO2)n(C)c1=O` [DOXOFYLLINE], the half-maximal inhibitory concentration (IC50) entry (in test [1]; at Substance-P receptor; at Cannabinoid receptor 1; at Endothelin-1 receptor; in test [2]; at Progesterone receptor) was “Not Active” in each case. Moreover, the IC50 result in test [3] (insect cells) is “Not Active”. For the same compound, the inhibitory constant (Ki) result in test [2] is given as “Not Active”.
As for `COc1cccc2c1C(=O)c1c(O)c3c(c(O)c1C2=O)C[C@@](O)(C(=O)CO)C[C@@H]3O[C@H]1C[C@H](N)[C@H](O)[C@H](C)O1` [DOXORUBICIN], the IC50 result (in test [1]; against Substance-P receptor; at Cannabinoid receptor 1; at Endothelin-1 receptor; in test [2]; on Progesterone receptor) was “Not Active” throughout. The concentration for half-maximal inhibition (IC50) in test [3] (read-out: IC50) is 31900 nM. Moreover, the inhibitory constant (Ki) entry in test [2] was “Not Active”.
With `COc1cccc2c1C(=O)c1c(O)c3c(c(O)c1C2=O)C[C@@](O)(C(=O)CO)C[C@@H]3O[C@H]1C[C@H](N)[C@@H](O)[C@H](C)O1` [EPIRUBICIN], the IC50 result (in test [1]; against Substance-P receptor; at Cannabinoid receptor 1; on Endothelin-1 receptor; in test [2]; at Progesterone receptor) was “Not Active” throughout. In addition, the half-maximal inhibitory concentration (IC50) result in test [3] (insect cells) is “Not Active”. For the same compound, the Ki entry in test [2] was “Not Active”.
Take `C[C@]12CC[C@@H]3c4ccc(OC(=O)c5ccccc5)cc4CC[C@H]3[C@@H]1CC[C@@H]2O` [ESTRADIOL BENZOATE]: the concentration for half-maximal inhibition (IC50) entry in test [1] is “Not Active”; on Substance-P receptor, “Not Active”; on Cannabinoid receptor 1, “Not Active”; against Endothelin-1 receptor, “Not Active”; in test [2], “Not Active”; at Progesterone receptor (read-out: IC50), 9610 nM. For the same compound, the concentration for half-maximal inhibition (IC50) result in test [3] (insect cells) was “Not Active”. The inhibition constant Ki result is “Not Active” in test [2] and 1250 nM on Progesterone receptor.
With `C[C@]12CC[C@@H]3c4ccc(O)cc4CC[C@H]3[C@@H]1CC[C@@H]2O` [ESTRADIOL], the half-maximal inhibitory concentration (IC50) result in test [1] was “Not Active”; against Substance-P receptor, “Not Active”; against Cannabinoid receptor 1, “Not Active”; at Endothelin-1 receptor, “Not Active”; in test [2] it was “Not Active”; on Progesterone receptor (read-out: IC50) it was 32600 nM. For the same compound, in test [3] (insect cells), the half-inhibitory concentration (IC50) entry was “Not Active”. Moreover, the inhibitory constant (Ki) entry in test [2] was “Not Active”; at Progesterone receptor, 4250 nM.
For the compound `CC[C@@H](CO)NCCN[C@@H](CC)CO` [ETHAMBUTOL], the IC50 entry (in test [1]; against Substance-P receptor; at Cannabinoid receptor 1; against Endothelin-1 receptor; in test [2]; at Progesterone receptor) was “Not Active” throughout. Also, in test [3] (insect cells), the half-maximal inhibitory concentration (IC50) result is recorded as “Not Active”. Also, in test [2], the Ki entry was “Not Active”.
For the compound `CC1(C)O[C@@H]2C[C@H]3[C@@H]4C[C@H](F)C5=CC(=O)C=C[C@]5(C)[C@H]4[C@@H](O)C[C@]3(C)[C@]2(C(=O)CO)O1` [FLUNISOLIDE], the IC50 result in test [1] is “Not Active”; against Substance-P receptor, “Not Active”; at Cannabinoid receptor 1 it was “Not Active”; against Endothelin-1 receptor it was “Not Active”; in test [2], “Not Active”; at Progesterone receptor (read-out: IC50) it was 359 nM. In test [3] (insect cells), the 50% inhibitory concentration (IC50) entry is given as “Not Active”. Moreover, the Ki entry was “Not Active” in test [2] and 47 nM on Progesterone receptor.
On to `CC1(C)O[C@@H]2C[C@H]3[C@@H]4C[C@H](F)C5=CC(=O)C=C[C@]5(C)[C@@]4(F)[C@@H](O)C[C@]3(C)[C@]2(C(=O)CO)O1` [FLUOCINOLONE ACETONIDE], for which the IC50 entry in test [1] was “Not Active”; against Substance-P receptor it was “Not Active”; on Cannabinoid receptor 1, “Not Active”; against Endothelin-1 receptor, “Not Active”; in test [2], “Not Active”; on Progesterone receptor (read-out: IC50), 26 nM. Further, the IC50 entry in test [3] (insect cells) is listed as “Not Active”. Also, the Ki result in test [2] is “Not Active”; at Progesterone receptor, 3.35 nM.
Take `CC1(C)O[C@@H]2C[C@H]3[C@@H]4C[C@H](F)C5=CC(=O)CC[C@]5(C)[C@H]4[C@@H](O)C[C@]3(C)[C@]2(C(=O)CO)O1` [FLURANDRENOLIDE]: the concentration for half-maximal inhibition (IC50) result was “Not Active” in test [1]; “Not Active” against Substance-P receptor; “Not Active” against Cannabinoid receptor 1; “Not Active” at Endothelin-1 receptor; “Not Active” in test [2]; 172 nM at Progesterone receptor (read-out: IC50). The half-inhibitory concentration (IC50) result in test [3] (insect cells) is reported as “Not Active”. The Ki entry in test [2] is “Not Active”; on Progesterone receptor it was 22 nM.
Consider `CN(C)c1ccc(C(=C2C=CC(=[N+](C)C)C=C2)c2ccc(N(C)C)cc2)cc1.[Cl-]` [GENTIAN VIOLET], for which the IC50 result (in test [1]; against Substance-P receptor; on Cannabinoid receptor 1; against Endothelin-1 receptor; in test [2]; at Progesterone receptor) was “Not Active” in each case. For the same compound, the 50% inhibitory concentration (IC50) result in test [3] (insect cells) is recorded as “Not Active”. In addition, the Ki result in test [2] was “Not Active”.
On to `Cc1ccc(S(=O)(=O)NC(=O)NN2CC3CCCC3C2)cc1` (stereo unspecified) [GLICLAZIDE], for which the 50% inhibitory concentration (IC50) result (in test [1]; against Substance-P receptor; at Cannabinoid receptor 1; at Endothelin-1 receptor; in test [2]; on Progesterone receptor) was “Not Active” in each case. Further, the IC50 result in test [3] (insect cells) is “Not Active”. The Ki entry in test [2] is recorded as “Not Active”.
Turning to `NC(=O)NO` [HYDROXYUREA], the concentration for half-maximal inhibition (IC50) entry (in test [1]; against Substance-P receptor; against Cannabinoid receptor 1; at Endothelin-1 receptor; in test [2]; at Progesterone receptor) was “Not Active” throughout. For the same compound, the IC50 result in test [3] (insect cells) is recorded as “Not Active”. In addition, in test [2], the inhibitory constant (Ki) entry is recorded as “Not Active”.
As for `CC(C)Cc1ccc(C(C)C(=O)O)cc1` (stereo unspecified) [IBUPROFEN], the IC50 result (in test [1]; against Substance-P receptor; at Cannabinoid receptor 1; against Endothelin-1 receptor; in test [2]; at Progesterone receptor) was “Not Active” each time. The IC50 result in test [3] (insect cells) is listed as “Not Active”. In test [2], the inhibition constant Ki entry is reported as “Not Active”.
`COc1ccc2c(c1)c(CC(=O)O)c(C)n2C(=O)c1ccc(Cl)cc1` [INDOMETHACIN]: the IC50 result (in test [1]; against Substance-P receptor; against Cannabinoid receptor 1; at Endothelin-1 receptor; in test [2]; on Progesterone receptor) was “Not Active” throughout. Also, in test [3] (insect cells), the half-maximal inhibitory concentration (IC50) entry is listed as “Not Active”. In addition, the Ki entry in test [2] was “Not Active”.
As for `CCc1c2c(nc3ccc(OC(=O)N4CCC(N5CCCCC5)CC4)cc13)-c1cc3c(c(=O)n1C2)COC(=O)[C@]3(O)CC` [IRINOTECAN], the half-inhibitory concentration (IC50) entry (in test [1]; at Substance-P receptor; against Cannabinoid receptor 1; on Endothelin-1 receptor; in test [2]; on Progesterone receptor) was “Not Active” throughout. For the same compound, in test [3] (insect cells), the half-maximal inhibitory concentration (IC50) entry was “Not Active”. The inhibition constant Ki result in test [2] is reported as “Not Active”.
`CC(C(=O)O)c1cccc(C(=O)c2ccccc2)c1` (stereo unspecified) [KETOPROFEN]: the IC50 result (in test [1]; on Substance-P receptor; at Cannabinoid receptor 1; at Endothelin-1 receptor; in test [2]; on Progesterone receptor) was “Not Active” throughout. In addition, in test [3] (insect cells), the IC50 entry is on record as “Not Active”. Also, the inhibitory constant (Ki) result in test [2] is recorded as “Not Active”.
Turning to `Nc1ccn([C@@H]2CS[C@H](CO)O2)c(=O)n1` [LAMIVUDINE], the half-maximal inhibitory concentration (IC50) entry (in test [1]; against Substance-P receptor; on Cannabinoid receptor 1; at Endothelin-1 receptor; in test [2]; at Progesterone receptor) was “Not Active” each time. The concentration for half-maximal inhibition (IC50) entry in test [3] (insect cells) was “Not Active”. Also, the inhibition constant Ki result in test [2] was “Not Active”.

The record behind these values is ChEMBL document CHEMBL1909046, “DrugMatrix in vitro pharmacology data”.
